Among the test systems are HCT-116 colon; MOLT-4 leukemia; NCI-H460 lung; SK-MEL-28 melanoma; SK-MEL-5 melanoma; SNB-19 CNS; U251 CNS; BT-549 breast; DU-145 prostate; SN12C renal.
What all share (assay): inhibition of tumour cell growth, NCI panel, 48 h

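Growth conditions: 96-well plates. Treatment: test compound, 48 hours, 5 concentrations. Analysis: linear interpolation between bracketing concentrations; unreached endpoints set to highest concentration. GI50: concentration for 50% inhibition of growth. TGI: total growth inhibition.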

Consider `CN(NC1OC(CO)C(O)C(O)C1O)c1ccccc1` (stereo not given), for which the TGI in the test with HCT-116 colon, in the test on MOLT-4 leukemia, in the test on NCI-H460 lung, in the test with SK-MEL-28 melanoma, with SK-MEL-5 melanoma and in the test with SNB-19 CNS was over 100 µM in each case. In addition, the TGI with U251 CNS is over 100 µM.
Take `COc1ccccc1/C=C/C1=C(C)CCC(c2ccccc2OC)C1C` (stereo not given): the GI50 in the test on BT-549 breast was 0.27 µM; in the test on DU-145 prostate, 220 nM; in the test with HCT-116 colon it was 108 nM; with NCI-H460 lung, 278 nM; with SK-MEL-28 melanoma, 240 nM; in the test on SK-MEL-5 melanoma it was 122 nM. The GI50 in the test on SN12C renal was 323 nM; with SNB-19 CNS, 226 nM; with U251 CNS, 132 nM. In addition, the TGI was 1.73 µM with BT-549 breast; 868 nM in the test on DU-145 prostate; 3.14 µM with HCT-116 colon; 1.27 µM in the test on NCI-H460 lung; over 100 µM with SK-MEL-28 melanoma; 0.379 µM with SK-MEL-5 melanoma. Also, the TGI was over 100 µM in the test on SN12C renal, over 100 µM with SNB-19 CNS and 22.5 µM in the test with U251 CNS.
Regarding `O=C(O)c1c(Cl)c(Cl)c(Cl)c(Cl)c1C(=O)Nc1ccc2cn[nH]c2c1`, the TGI is over 100 µM in the test with BT-549 breast; over 100000 nM in the test on DU-145 prostate; over 100 µM in the test with HCT-116 colon; over 100 µM in the test on NCI-H460 lung; over 100 µM in the test on SK-MEL-28 melanoma; over 100 µM with SK-MEL-5 melanoma. In addition, the TGI in the test on SN12C renal, in the test with SNB-19 CNS and in the test on U251 CNS was over 100 µM each time.
Take `CN(C)CCn1cnc2ncccc2c1=O`: the TGI in the test on HCT-116 colon, in the test with MOLT-4 leukemia, in the test with NCI-H460 lung, in the test with SK-MEL-28 melanoma, in the test with SK-MEL-5 melanoma and with SN12C renal was over 100 µM throughout. The TGI in the test with SNB-19 CNS and with U251 CNS was over 100 µM each time.
For `Cc1ccc(-c2nc(N3CCNCC3)c3oc(-c4ccccc4)nc3n2)cc1`, the GI50 in the test on BT-549 breast is 13.8 µM; in the test with DU-145 prostate it was 1740 nM; with HCT-116 colon, 1850 nM; in the test on MOLT-4 leukemia, 1.91 µM; in the test with NCI-H460 lung it was 1830 nM; in the test on SK-MEL-28 melanoma, 1910 nM. Also, the figures for the GI50 with SN12C renal, in the test on SNB-19 CNS and with U251 CNS were 1800 nM, 1850 nM and 1790 nM, respectively. The TGI in the test with BT-549 breast amounted to 31.6 µM; in the test on DU-145 prostate, 3190 nM; in the test with HCT-116 colon, 3.29 µM; in the test with MOLT-4 leukemia, 3.67 µM; in the test on NCI-H460 lung, 3.52 µM; in the test on SK-MEL-28 melanoma, 3.39 µM. Further, the figures for the TGI in the test on SN12C renal, in the test with SNB-19 CNS and with U251 CNS were 3.3 µM, 3.29 µM and 3.24 µM, respectively.
In the case of `c1ccc(-c2n(Cc3ccc4ccccc4c3)cc[n+]2Cc2ccc3ccccc3c2)cc1`, the GI50 with DU-145 prostate is 1380 nM; in the test with HCT-116 colon it was 665 nM; in the test with SK-MEL-28 melanoma it was 1140 nM; in the test on SK-MEL-5 melanoma, 481 nM; in the test with SN12C renal, 1260 nM. Also, the TGI in the test on DU-145 prostate turned out to be 2730 nM; in the test on HCT-116 colon it was 2.14 µM; in the test on SK-MEL-28 melanoma it was 2.53 µM; in the test with SK-MEL-5 melanoma, 1.69 µM; in the test with SN12C renal, 2.64 µM.
Take `CN(C)C(=O)NC(=S)N(C)C`: the TGI in the test on HCT-116 colon, with MOLT-4 leukemia, with NCI-H460 lung, in the test with SK-MEL-28 melanoma, in the test on SK-MEL-5 melanoma and in the test with SN12C renal was over 100 µM in each case. The TGI in the test on SNB-19 CNS is over 100 µM; in the test on U251 CNS, 14 µM.
With `CC(=O)[CH-]C(=O)c1ccccc1.CC(=O)[CH-]C(=O)c1ccccc1.CC(C)CCC[C@H](C)C1CCC2[C@@H]3CC=C4C[C@@H]([O-])CC[C@]4(C)C3CC[C@@]21C.CC(C)CCC[C@H](C)C1CCC2[C@@H]3CC=C4C[C@@H]([O-])CC[C@]4(C)C3CC[C@@]21C.Cl.[Ti+4]` (stereo not given in full), the GI50 with HCT-116 colon is over 25000 nM; in the test on MOLT-4 leukemia, over 25 µM; with NCI-H460 lung it was over 25000 nM; with SK-MEL-28 melanoma it was over 25000 nM; in the test on SK-MEL-5 melanoma it was over 25000 nM; in the test with SN12C renal, over 25000 nM. The GI50 with SNB-19 CNS and in the test on U251 CNS was over 25000 nM each time. Also, the TGI in the test on HCT-116 colon, in the test with MOLT-4 leukemia, in the test with NCI-H460 lung, in the test with SK-MEL-28 melanoma, in the test on SK-MEL-5 melanoma and in the test with SN12C renal was over 25 µM each time. For the same compound, the TGI in the test on SNB-19 CNS and in the test on U251 CNS was over 25 µM in each case.
Take `Clc1ccc(OCc2nnc3n2N=C(c2ccc(Br)cc2)CS3)cc1`: the TGI was over 100 µM with HCT-116 colon; over 100 µM in the test on MOLT-4 leukemia; 82 µM in the test on NCI-H460 lung; over 100 µM in the test with SK-MEL-28 melanoma; over 100 µM in the test with SN12C renal; 75.1 µM with SNB-19 CNS. The same compound displayed a TGI with U251 CNS of over 100 µM.
Consider `CCN(CC)CCN1C(=O)C2C3C(=O)CC(C)(CC3C)C2C1=O` (stereo not given), for which the GI50 was over 100 µM in the test on BT-549 breast; over 100000 nM in the test on DU-145 prostate; over 100000 nM in the test with HCT-116 colon; over 100 µM in the test with MOLT-4 leukemia; over 100000 nM with SK-MEL-5 melanoma; over 100000 nM with SN12C renal. The GI50 with SNB-19 CNS and in the test with U251 CNS was over 100000 nM throughout. In addition, the TGI in the test with BT-549 breast is over 100 µM; with DU-145 prostate it was over 100000 nM; in the test with HCT-116 colon, over 100 µM; with MOLT-4 leukemia, over 100 µM; in the test with SK-MEL-5 melanoma, over 100 µM; with SN12C renal it was over 100 µM. Also, the TGI in the test on SNB-19 CNS and in the test with U251 CNS was over 100 µM in each case.
Take `CC(=O)OCC1OC(OCc2ccccc2)C(Br)C(OC(C)=O)C1OC(C)=O` (stereo not given): the TGI in the test with HCT-116 colon, with MOLT-4 leukemia, with NCI-H460 lung, in the test with SK-MEL-28 melanoma, in the test on SK-MEL-5 melanoma and in the test with SN12C renal was over 100 µM throughout. In addition, the TGI with SNB-19 CNS and with U251 CNS was over 100 µM each time.

(Values after PubChem BioAssay (NCI).)
